Read-outs that look alike come from different tables or passages of the source.
Tested on: guinea pig perilymph proteome
Method: Animals were treated and sampled independently, and perilymph samples were stored at −80° C. and processed for proteomics analysis upon collection of all samples.
Dexamethasone Treatment of Animals. […] Twenty-two juvenile guinea pigs of either sex weighing between 150 and 300 g were obtained from a commercial vendor (Charles River Laboratories, Inc., Wilmington, Mass.).
Eight animals were assigned to the control group and were not given any treatment prior to aspiration. […] Guinea pigs were anesthetized with isoflurane gas (3.0% for induction and 1.0-3.0% for maintenance). […] The guinea pig remained under isoflurane anesthesia in a left lateral decubitus position for 30 min. The guinea pig was then allowed to recover in its cage until the aspiration procedure.
Aspiration Procedure. All guinea pigs underwent the aspiration procedure detailed below. […] All procedures were performed on the right ear. Guinea pigs were anesthetized with isoflurane gas (3.0% for induction and 1.0-3.0% for maintenance). Lidocaine was injected subcutaneously for local anesthesia. Buprenorphine sustained release (0.1 mg/kg) and meloxicam (0.5 mg/kg) were both administered subcutaneously prior to surgery for postoperative analgesia. To reduce head motion from breath cycles, head fixation was achieved using a modular 3D-printed head holder with two pointed screws placed anterior to the external auditory meatus and posterior to the orbit without piercing the skin.
A scalpel was used to create a 1 cm postauricular incision. Blunt dissection was used to expose the bulla. A 1 mm drill tip fixed onto a Stryker S2 πDrive drill (Stryker, Kalamazoo, Mich.) was used to create a small opening into the middle ear space. Additional bone was removed using forceps to enlarge the opening to 2-3 mm in diameter for optimal visualization of the RWM. A hollow microneedle, mounted onto the tip of a 2 in. long, 30 gauge, blunt small hub removable needle (Hamilton Company, Reno, Nev.), was secured onto a 10 μL Gastight Hamilton syringe (Model 1701 RN, Hamilton Company, Reno, Nev.). The syringe was mounted onto a UMP3 UltraMicroPump (World Precise Instruments, Sarasota, Fla.), and the pump was fixed to a micromanipulator. Using the micromanipulator, the mounted hollow microneedle was slowly advanced toward the RWM and the perforation was confirmed by visualization.
Using the UltraMicroPump, 1 μL of perilymph was aspirated across theRWMover 45 s. The sample was ejected into a 0.5 mL LoBind Microcentrifuge tube (Eppendorf, Hamburg, Germany) containing 2 μL of 1% protease cocktail inhibitor solution (P8340, Sigma-Aldrich, St. Louis, Mo.) in liquid chromatography/mass spectrometry grade water (Optima, ThermoFisher Scientific, Fair Lawn, N.J.) and stored at −80° C. Seventy-two hours after aspiration, animals were sacrificed with pentobarbital overdose.
Proteomics Analysis. All perilymph samples (1 μL) were stored at −80° C. and then processed as described previously. Briefly, samples were purified with a methanol chloroform protein precipitation as previously described. Proteins were resuspended in 8 M urea, 3 mM dithiothreitol (DTT), 100 mM ammonium bicarbonate in liquid chromatography/mass spectrometry grade water, reduced with dithiothreitol, and alkylated with iodoacetamide. For proteolytic digestion, samples were diluted 5-fold in 100 mM ammonium bicarbonate and then digested using sequencing grade trypsin (Promega V511) at a protease/protein ratio of 1:50 at 37° C. for 16 h as described previously. Samples were then desalted with Nest Group C18 Macrospin columns (Southborough, Mass.). Resulting peptides were analyzed by liquid chromatography/mass spectrometry as described previously.

C[C@@H]1C[C@H]2[C@@H]3CCC4=CC(=O)C=C[C@]4(C)[C@@]3(F)[C@@H](O)C[C@]2(C)[C@@]1(O)C(=O)COP(=O)(O)O [Dex, Dexamethasone sodium phosphate]
number of perilymph proteins downregulated compared to control (IP Dex group): 6 proteins
number of perilymph proteins upregulated compared to control (IP Dex group): 8 proteins
number of perilymph proteins modulated compared to control (IP Dex group, of 175 proteins analysed): 14 proteins
number of perilymph proteins downregulated compared to control (IT Dex group): two
number of perilymph proteins upregulated compared to control (IT Dex group): one
number of perilymph proteins modulated compared to control (IT Dex group, of 175 proteins analysed): three
number of perilymph proteins modulated compared to control (by either IP Dex or IT Dex, overall): 15 proteins
